Experimental findings from ChEMBL document CHEMBL3044635, “Effect of propiconazole and difenoconazole on the control of anthracnose of chilli fruits caused by Colletotrichum capsici” (Crop Prot, 2006) are described below.

The structures appear in SMILES notation. ≈ marks a conversion by molar mass, not a printed value.

As a reminder, the MIC is the lowest concentration found to suppress growth.

The test system of data set [1] is Colletotrichum truncatum. As to the kind of experiment: Fungicidal activity against Colletotrichum capsici infected chilli plant assessed as fruit yield measured per plot at 0.1% applied as spray on day 10 post inoculation and twice every 20 days measured on day 155 post sowing in field conditions (reference value: 8.25 to 9.3 kg). The class given is functional.

Data set [2] relates to Colletotrichum truncatum. As to the kind of experiment: Fungicidal activity against Colletotrichum capsici assessed as mycelial biomass at 0.5 ug/ml incubated 16 hr photoperiod for 20 days (reference value: 675 mg). The format is functional.
Data set [3] concerns Colletotrichum truncatum. Put plainly: Fungicidal activity against Colletotrichum capsici infected chilli plant assessed as percent disease index at 0.1% applied as spray on day 10 post inoculation and twice every 20 days measured on day 155 post sowing in field conditions (reference value: 51 to 56.5%). The class given is functional.
In data set [4] the test system is Colletotrichum truncatum. As to the kind of experiment: Fungicidal activity against Colletotrichum capsici infected chilli plant assessed as percent disease index at 0.025% applied as spray on day 10 post inoculation and twice every 20 days measured on day 155 post sowing in field conditions (reference value: 51 to 56.5%). The format is functional.
A further data set relates to Puccinia allii. As to the kind of experiment: Fungicidal activity against Puccinia allii assessed as inhibition of spore germination. The format is functional.
In data set [5] the test system is Colletotrichum truncatum. Put plainly: Fungicidal activity against Colletotrichum capsici assessed as spore germination at 5 ug/ml after 48 to 96 hr relative to control. The format is functional.
Data set [6] concerns Colletotrichum truncatum. As to the kind of experiment: Fungicidal activity against Colletotrichum capsici assessed as sporulation at 0.1 ug/ml incubated 16 hr photoperiod for 20 days by haemocytometer (reference value: 0.081 x 10^6 ml'-1). The class given is functional.
Data set [7] deals with Colletotrichum truncatum. As to the kind of experiment: Fungicidal activity against Colletotrichum capsici infected chilli plant assessed as fruit yield measured per plot at 0.025% applied as spray on day 10 post inoculation and twice every 20 days measured on day 155 post sowing in field conditions (reference value: 8.25 to 9.3 kg). The class given is functional.
For data set [8], the system named is Colletotrichum truncatum. As to the kind of experiment: Fungicidal activity against Colletotrichum capsici infected chilli plant assessed as fruit mass measured per pot at 0.1% applied as spray on day 10 post inoculation and twice every 20 days measured on day 155 post sowing in green house conditions (reference value: 85.3 to 94.5 g). The class given is functional.

Data set [9] concerns Colletotrichum truncatum. As to the kind of experiment: Fungicidal activity against Colletotrichum capsici infected chilli plant assessed as percent disease index at 0.1% applied as spray on day 10 post inoculation and twice every 20 days measured on day 155 post sowing in green house conditions (reference value: 62.5 to 68.6%). The class given is functional.
For data set [10], the system named is Colletotrichum truncatum. Put plainly: Fungicidal activity against Colletotrichum capsici assessed as mycelial biomass at 10 ug/ml incubated 16 hr photoperiod for 20 days (reference value: 675 mg). The format is functional.
Data set [11] has as its system Colletotrichum truncatum. As to the kind of experiment: Fungicidal activity against Colletotrichum capsici assessed as mycelial biomass at 50 ug/ml incubated 16 hr photoperiod for 20 days (reference value: 675 mg). The class given is functional.
Data set [12] has as its system Capsicum annuum. Put plainly: Phytotoxicity in Capsicum annuum (pepper) at 0.1% applied as spray. The format is organism-based. Conditions: in vivo, other.
Data set [13] relates to Colletotrichum truncatum. As to the kind of experiment: Fungicidal activity against Colletotrichum capsici assessed as mycelial biomass at 0.1 ug/ml incubated 16 hr photoperiod for 20 days (reference value: 675 mg). The class given is functional.
The test system of data set [14] is Colletotrichum truncatum. Put plainly: Fungicidal activity against Colletotrichum capsici infected chilli plant assessed as fruit length at 0.1% applied as spray on day 10 post inoculation and twice every 20 days measured on day 155 post sowing in green house conditions (reference value: 6.8 to 7 cm). The format is functional.
The subject of data set [15] is Colletotrichum truncatum. Put plainly: Fungicidal activity against Colletotrichum capsici infected chilli plant assessed as fruit length measured per plot at 0.1% applied as spray on day 10 post inoculation and twice every 20 days measured on day 155 post sowing in field conditions (reference value: 8 to 8.7 cm). The class given is functional.
The subject of data set [16] is Colletotrichum truncatum. Put plainly: Fungicidal activity against Colletotrichum capsici assessed as linear growth at 50 ug/ml incubated 16 hr photoperiod for 20 days (reference value: 90 mm). The class given is functional.
In data set [17] the test system is Colletotrichum truncatum. As to the kind of experiment: Fungicidal activity against Colletotrichum capsici assessed as mycelial biomass at 1 ug/ml incubated 16 hr photoperiod for 20 days (reference value: 675 mg). The format is functional.
In data set [18] the test system is Capsicum annuum. Put plainly: Phytotoxicity in Capsicum annuum (pepper) at 0.05% applied as spray. The class given is organism-based. The note with it: in vivo, other.
Data set [19] has as its system Colletotrichum truncatum. Put plainly: Fungicidal activity against Colletotrichum capsici assessed as spore germination at 5 ug/ml after 48 to 96 hr (reference value: 70.2 CFU). The format is functional.

With `CCCC1COC(Cn2cncn2)(c2ccc(Cl)cc2Cl)O1` (stereo not given) [PROPICONAZOLE], the Crop_yield in the data set on Colletotrichum truncatum [1] was 17.5 kg; in the data set on Colletotrichum truncatum [7], 9.86 kg; in the data set with Colletotrichum truncatum [8] it was 165.6 g. For the same molecule, the Activity is recorded as 240 mg in the data set with Colletotrichum truncatum [2]; 0% in the data set with Colletotrichum truncatum [5]; 2.83 ×10⁶ /ml in the data set on Colletotrichum truncatum [6]; 0 mg in the data set with Colletotrichum truncatum [10]; 0 mg in the data set on Colletotrichum truncatum [11]; “Non-toxic” in the data set on Capsicum annuum [12]. The Activity was 410 mg with Colletotrichum truncatum [13]; 8 cm in the data set with Colletotrichum truncatum [14]; 10.2 cm in the data set on Colletotrichum truncatum [15]; 9 mm with Colletotrichum truncatum [16]; 129 mg in the data set with Colletotrichum truncatum [17]. The figures for the PDI in the data set with Colletotrichum truncatum [3], in the data set with Colletotrichum truncatum [4] and in the data set on Colletotrichum truncatum [9] were 13.5%, 30.6% and 17.5%, respectively. Also, the MIC with Puccinia allii is 50 µg/mL (≈ 146 µM).

For the molecule `CC1COC(Cn2cncn2)(c2ccc(Oc3ccc(Cl)cc3)cc2Cl)O1` (stereo not given) [DIFENOCONAZOLE], the Activity result in the data set with Capsicum annuum [18] is “Non-toxic”; with Colletotrichum truncatum [2], 350 mg; in the data set on Colletotrichum truncatum [6], 3.25 ×10⁶ /ml; in the data set with Colletotrichum truncatum [10] it was 47 mg; in the data set on Colletotrichum truncatum [11], 0 mg; in the data set on Capsicum annuum [12] it was “Toxic”. For the same molecule, the Activity is given as 465 mg in the data set with Colletotrichum truncatum [13], 9 mm in the data set on Colletotrichum truncatum [16] and 243 mg in the data set with Colletotrichum truncatum [17]. For the same molecule, the PDI in the data set with Colletotrichum truncatum [4] is 33%. Also, the CFU in the data set on Colletotrichum truncatum [19] came to 4.1. Further, the Crop_yield with Colletotrichum truncatum [7] stood at 9.1 kg.
